Reference: patent US20120295907A1, “INSECTICIDAL COMPOUNDS” (SYNGENTA CROP PROTECTION, LLC, priority 2009, published 2012)

Key:
Type in all cases: in vivo
Thrips tabaci = Thrips tabaci (Onion Thrips) sunflower leaf disc spray test; settings: foliar, 168 h, 200 ppm spray on sunflower leaf discs, population of mixed ages, 7 days, mortality
Myzus persicae = Myzus persicae (Green Peach Aphid) sunflower leaf disc spray test; settings: foliar, 144 h, 200 ppm spray on sunflower leaf discs, aphid population of mixed ages, 6 DAT, mortality
Tetranychus urticae = Tetranychus urticae (Two-Spotted Spider Mite) bean leaf disc spray test; settings: foliar, 192 h, 200 ppm spray on bean leaf discs, mite populations of mixed ages, 8 days, egg, larval and adult mortality, read-out: control of Tetranychus urticae
Spodoptera littoralis = Spodoptera littoralis (Egyptian Cotton Leafworm) cotton leaf disc spray test; settings: foliar, 72 h, 200 ppm spray on cotton leaf discs, L1 larvae, mortality, feeding behavior, growth regulation 3 DAT
Diabrotica balteata = Diabrotica balteata (Corn Root Worm) artificial diet MTP test; settings: 120 h, 200 ppm (concentration in well 18 ppm), L2 larvae, 5 days, larval mortality, growth regulation
Plutella xylostella = Plutella xylostella (Diamond Back Moth) artificial diet MTP test; settings: 144 h, 200 ppm (concentration in well 18 ppm), L2 larvae, 6 days, larval mortality, growth regulation
Heliothis virescens = Heliothis virescens (Tobacco Budworm) egg test on artificial diet; settings: 96 h, 200 ppm (concentration in well 18 ppm), eggs 0-24 h old on artificial diet, 4 days, egg mortality, larval mortality, growth regulation

Measured: pest or weed control at 200 ppm

CCc1cc(C(F)(C(F)(F)F)C(F)(F)C(F)(F)F)cc(C)c1NC(=O)c1cccc(NC(=O)c2ccc(F)cc2Cl)c1OC (stereo not shown) [A3, N-[2-ethyl-4-(1,2,2,3,3,3-hexafluoro-1-trifluoromethylpropyl)-6-methylphenyl]-3-(4-fluoro-2-chlorobenzoylamino)-2-methoxybenzamide]
not listed: Plutella xylostella | Heliothis virescens
≥ 80%: all other assays above

CCc1cc(C(F)(C(F)(F)F)C(F)(F)C(F)(F)F)cc(C)c1NC(=O)c1cccc(NC(=O)c2ccc(C#N)cc2)c1OC (stereo not shown) [A4, N-[2-ethyl-4-(1,2,2,3,3,3-hexafluoro-1-trifluoromethylpropyl)-6-methyl-phenyl]-3-(4-cyanobenzoylamino)-2-methoxybenzamide]
≥ 80%: all assays above

CCc1cc(C(F)(C(F)(F)F)C(F)(F)C(F)(F)F)cc(C)c1NC(=O)c1cccc(NC(=O)c2ccnc(Cl)c2)c1OC (stereo not shown) [A10]
≥ 80%: all assays above

CCc1cc(C(F)(C(F)(F)F)C(F)(F)C(F)(F)F)cc(C)c1NC(=O)c1cccc(NC(=O)c2ccc(Cl)nc2)c1OC (stereo not shown) [A17]
≥ 80%: all assays above

CCc1cc(C(F)(C(F)(F)F)C(F)(F)C(F)(F)F)cc(C)c1NC(=O)c1cccc(NC(=O)c2ccc([N+](=O)[O-])cc2C)c1OC (stereo not shown) [A22]
not listed: Heliothis virescens
≥ 80%: all other assays above

COc1c(NC(=O)c2ccc(F)cc2Cl)cccc1C(=O)Nc1c(Cl)cc(C(F)(C(F)(F)F)C(F)(F)C(F)(F)F)cc1Br (stereo not shown) [B2, N-[2-bromo-6-chloro-4-(1,2,2,3,3,3-hexafluoro-1-trifluoromethylpropyl)phenyl]-3-(4-fluoro-2-chlorobenzoylamino)-2-methoxybenzamide]
not listed: Thrips tabaci | Diabrotica balteata
≥ 80%: all other assays above

COc1c(NC(=O)c2ccccc2Cl)cccc1C(=O)Nc1c(Cl)cc(C(F)(C(F)(F)F)C(F)(F)C(F)(F)F)cc1Br (stereo not shown) [B5]
not listed: Thrips tabaci
≥ 80%: all other assays above

COc1c(NC(=O)c2ccc(C#N)cc2)cccc1C(=O)Nc1c(Cl)cc(C(F)(C(F)(F)F)C(F)(F)C(F)(F)F)cc1Br (stereo not shown) [B6]
not listed: Thrips tabaci | Diabrotica balteata
≥ 80%: all other assays above

COc1c(NC(=O)c2ccc([N+](=O)[O-])cc2)cccc1C(=O)Nc1c(Cl)cc(C(F)(C(F)(F)F)C(F)(F)C(F)(F)F)cc1Br (stereo not shown) [B7]
not listed: Thrips tabaci | Diabrotica balteata
≥ 80%: all other assays above

COc1c(NC(=O)c2ccc(C)cc2)cccc1C(=O)Nc1c(Cl)cc(C(F)(C(F)(F)F)C(F)(F)C(F)(F)F)cc1Br (stereo not shown) [B8]
not listed: Thrips tabaci | Diabrotica balteata
≥ 80%: all other assays above

COc1c(NC(=O)c2ccc(C(F)(F)F)cc2)cccc1C(=O)Nc1c(Cl)cc(C(F)(C(F)(F)F)C(F)(F)C(F)(F)F)cc1Br (stereo not shown) [B15]
not listed: Thrips tabaci | Diabrotica balteata
≥ 80%: all other assays above

COc1c(NC(=O)c2ccc(F)cc2)cccc1C(=O)Nc1c(Cl)cc(C(F)(C(F)(F)F)C(F)(F)C(F)(F)F)cc1Br (stereo not shown) [B19]
not listed: Thrips tabaci | Diabrotica balteata
≥ 80%: all other assays above

COc1ccc(C(=O)Nc2cccc(C(=O)Nc3c(Cl)cc(C(F)(C(F)(F)F)C(F)(F)C(F)(F)F)cc3Br)c2OC)cc1 (stereo not shown) [B28]
not listed: Heliothis virescens
≥ 80%: all other assays above

COc1c(NC(=O)c2ccncc2)cccc1C(=O)Nc1c(Cl)cc(C(F)(C(F)(F)F)C(F)(F)C(F)(F)F)cc1Br (stereo not shown) [B54]
not listed: Heliothis virescens
≥ 80%: all other assays above

COc1c(NC(=O)c2csnc2C)cccc1C(=O)Nc1c(Cl)cc(C(F)(C(F)(F)F)C(F)(F)C(F)(F)F)cc1Br (stereo not shown) [B98]
not listed: Thrips tabaci
≥ 80%: all other assays above

COc1c(NC(=O)c2c(F)cc(F)cc2F)cccc1C(=O)Nc1c(Cl)cc(C(F)(C(F)(F)F)C(F)(F)C(F)(F)F)cc1Br (stereo not shown) [B189, N-{3-[2-Bromo-6-chloro-4-(1,2,2,3,3,3-hexafluoro-1-trifluoromethylpropyl)-phenylcarbamoyl]-2-methoxyphenyl}-2,4,6-trifluorobenzamide]
not listed: Thrips tabaci | Diabrotica balteata
≥ 80%: all other assays above

COc1c(NC(=O)c2c(F)cc(F)cc2F)cccc1C(=O)Nc1c(Cl)cc(C(F)(C(F)(F)F)C(F)(F)F)cc1Br [G3]
not listed: Thrips tabaci
≥ 80%: all other assays above

COc1c(NC(=O)c2c(F)cc(C#N)cc2F)cccc1C(=O)Nc1c(Cl)cc(C(F)(C(F)(F)F)C(F)(F)F)cc1Br [G4]
not listed: Thrips tabaci
≥ 80%: all other assays above

COc1c(NC(=O)c2ccc(F)cc2Cl)cccc1C(=O)Nc1c(Cl)cc(C(F)(C(F)(F)F)C(F)(F)F)cc1Br [G5]
not listed: Thrips tabaci
≥ 80%: all other assays above

CCc1cc(C(F)(C(F)(F)F)C(F)(F)F)cc(C)c1NC(=O)c1cccc(NC(=O)c2ccc(F)cc2Cl)c1OC [J27]
not listed: Spodoptera littoralis
≥ 80%: all other assays above
